What was measured:
DAGLα (hDAGLα-FLAG) = DAGLα (hDAGLα-FLAG) (Homo sapiens (Human), UniProt Q9Y4D2); experiment: competitive ABPP, membrane proteome of transfected HEK293T cells; type: biochemical; settings: for IC50: read-out: DAGLα IC50; for inhibition at 0.4 µM: read-out: DAGLα % inh. 0.4 μM
Procedure, shortened: (§1)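 HEK293T membrane proteome (1 mg/ml) expressing FLAG-tagged human DAGLα or DAGLβ, treated 30 min at room temperature with compound, then 30 min with HT-01 or FP-Rh probe (1 μM). Bands separated by SDS-PAGE were normalized to DMSO for IC50 by variable-slope fit.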

DAGLβ (hDAGLβ-FLAG) = DAGLβ (hDAGLβ-FLAG) (Homo sapiens (Human), UniProt Q8NCG7); experiment: as above; type: biochemical; settings: for IC50: read-out: DAGLβ IC50; for inhibition at 0.4 µM: read-out: DAGLβ % inh. 0.4 μM
Procedure, shortened: as §1

Sequence of DAGLβ (hDAGLβ-FLAG) (Q8NCG7 whole entry): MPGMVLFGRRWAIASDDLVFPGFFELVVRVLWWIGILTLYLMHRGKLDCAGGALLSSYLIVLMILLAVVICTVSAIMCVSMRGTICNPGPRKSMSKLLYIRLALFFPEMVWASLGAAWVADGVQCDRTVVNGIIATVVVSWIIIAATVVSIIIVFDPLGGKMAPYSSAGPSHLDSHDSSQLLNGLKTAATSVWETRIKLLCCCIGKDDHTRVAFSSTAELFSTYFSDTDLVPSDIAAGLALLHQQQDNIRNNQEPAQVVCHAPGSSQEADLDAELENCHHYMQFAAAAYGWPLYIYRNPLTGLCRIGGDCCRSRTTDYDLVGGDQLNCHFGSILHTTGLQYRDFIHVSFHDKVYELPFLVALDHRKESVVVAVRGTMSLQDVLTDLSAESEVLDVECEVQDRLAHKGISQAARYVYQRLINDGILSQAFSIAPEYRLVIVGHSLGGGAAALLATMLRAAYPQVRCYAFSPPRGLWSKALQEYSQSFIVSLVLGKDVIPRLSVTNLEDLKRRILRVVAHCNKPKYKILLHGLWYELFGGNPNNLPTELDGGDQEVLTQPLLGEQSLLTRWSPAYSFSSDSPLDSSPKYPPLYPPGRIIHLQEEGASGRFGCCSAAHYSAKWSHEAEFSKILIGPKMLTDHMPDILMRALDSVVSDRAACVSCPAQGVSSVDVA
Sequence of DAGLα (hDAGLα-FLAG) (Q9Y4D2 whole entry): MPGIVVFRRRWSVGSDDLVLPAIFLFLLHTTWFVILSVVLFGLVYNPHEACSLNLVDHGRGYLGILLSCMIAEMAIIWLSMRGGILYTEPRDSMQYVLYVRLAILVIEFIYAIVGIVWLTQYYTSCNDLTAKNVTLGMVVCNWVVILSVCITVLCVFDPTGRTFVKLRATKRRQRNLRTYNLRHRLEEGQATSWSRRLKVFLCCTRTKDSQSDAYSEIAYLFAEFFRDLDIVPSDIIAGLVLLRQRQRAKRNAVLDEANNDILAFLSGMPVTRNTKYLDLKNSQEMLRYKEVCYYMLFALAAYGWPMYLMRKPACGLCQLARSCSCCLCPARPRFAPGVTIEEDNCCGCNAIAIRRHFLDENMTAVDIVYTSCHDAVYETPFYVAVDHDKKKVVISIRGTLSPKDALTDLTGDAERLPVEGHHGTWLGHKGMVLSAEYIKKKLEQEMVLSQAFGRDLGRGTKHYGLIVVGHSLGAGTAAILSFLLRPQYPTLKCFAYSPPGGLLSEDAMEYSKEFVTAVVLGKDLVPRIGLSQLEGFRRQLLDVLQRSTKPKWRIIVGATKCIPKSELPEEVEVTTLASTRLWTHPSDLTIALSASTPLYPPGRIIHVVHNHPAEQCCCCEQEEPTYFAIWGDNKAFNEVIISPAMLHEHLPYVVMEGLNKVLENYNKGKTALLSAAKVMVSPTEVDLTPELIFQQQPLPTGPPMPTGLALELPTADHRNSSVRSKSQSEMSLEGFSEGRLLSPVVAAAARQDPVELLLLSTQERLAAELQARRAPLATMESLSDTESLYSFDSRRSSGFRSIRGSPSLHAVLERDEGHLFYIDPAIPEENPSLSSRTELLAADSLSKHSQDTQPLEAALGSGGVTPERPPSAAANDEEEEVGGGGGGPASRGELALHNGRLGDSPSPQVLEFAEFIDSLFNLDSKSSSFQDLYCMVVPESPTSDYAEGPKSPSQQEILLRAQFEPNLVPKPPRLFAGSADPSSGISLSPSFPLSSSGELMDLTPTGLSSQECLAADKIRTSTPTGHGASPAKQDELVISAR

SMILES | IC50 (DAGLα (hDAGLα-FLAG)) [nM] | IC50 (DAGLβ (hDAGLβ-FLAG)) [nM] | also measured
CCC(CC)CN(CCc1ccncc1)C(=O)n1ncc(-c2ccc(OC(F)(F)F)cc2)n1 [Compound 54, N-(2-Ethylbutyl)-N-(2-(pyridin-4-yl)ethyl)-4-(4-(trifluoromethoxy)phenyl)-2H-1,2,3-triazole-2-carboxamide] | > 10000 | 2000 to 10000 | –
COc1cc(C)cc(OC)c1-c1ccc(-c2cn(C(=O)N3CCCCC3Cc3ccncc3)nn2)cc1 (stereo not shown) [Compound 68, (4-(2′,6′-dimethoxy-4′-methyl-[1,1′-biphenyl]-4-yl)-1H-1,2,3-triazol-1-yl)(2-(pyridin-4-ylmethyl)piperidin-1-yl)methanone] | ≤ 400 | 2000 to 10000 | –
CC(C)OC(=O)N1CCN(C(=O)n2ncc(-c3ccc(OC(F)(F)F)cc3)n2)C(Cc2ccccc2)C1 (stereo not shown) [Compound 97, isopropyl 3-benzyl-4-(4-(4-(trifluoromethoxy)phenyl)-2H-1,2,3-triazole-2-carbonyl)piperazine-1-carboxylate] | – | – | inhibition at 0.4 µM (DAGLα (hDAGLα-FLAG)): 25 to 50%; inhibition at 0.4 µM (DAGLβ (hDAGLβ-FLAG)): 0 to 25%
N#Cc1ccc(-c2cn(C(=O)N3CCCCC3Cc3ccccc3)nn2)cc1 (stereo not shown) [Compound 88, 4-(1-(2-benzylpiperidine-1-carbonyl)-1H-1,2,3-triazol-4-yl)benzonitrile] | ≤ 400 | ≤ 400 | –
COc1cnccc1-c1ccc(-c2cn(C(=O)N3CCCCC3Cc3ccccc3)nn2)cc1 (stereo not shown) [Compound 65, (2-benzylpiperidin-1-yl)(4-(4-(3-methoxypyridin-4-yl)phenyl)-1H-1,2,3-triazol-1-yl)methanone] | 400 to 2000 | 2000 to 10000 | –
O=C(N1CCCCC1Cc1ccccc1)n1cc(-c2ccc(CN3CCOCC3)cc2)nn1 (stereo not shown) [Compound 94, (2-benzylpiperidin-1-yl)(4-(4-(morpholinomethyl)phenyl)-1H-1,2,3-triazol-1-yl)methanone] | ≤ 400 | 400 to 2000 | –
CC(C)C(=O)N1CCN(C(=O)n2ncc(-c3ccc(OC(F)(F)F)cc3)n2)C(Cc2ccccc2)C1 (stereo not shown) [Compound 27, 1-(3-benzyl-4-(4-(4-(trifluoromethoxy)phenyl)-2H-1,2,3-triazole-2-carbonyl)piperazin-1-yl)-2-methylpropan-1-one] | – | – | inhibition at 0.8 µM (DAGLα (hDAGLα-FLAG); 0.8 μM (stated under the cell), read-out: DAGLα % inh. 0.8 μM): 0 to 25%; inhibition at 0.8 µM (DAGLβ (hDAGLβ-FLAG); 0.8 μM (stated under the cell), read-out: DAGLβ % inh. 0.8 μM): 0 to 25%
O=C(N1CCC=C[C@@H]1COCc1ccccc1)n1cc(-c2ccc(OC(F)(F)F)cc2)nn1 [Compound 106, (R)-(6-((benzyloxy)methyl)-3,6-dihydropyridin-1(2H)-yl)(4-(4-(trifluoromethoxy)phenyl)-1H-1,2,3-triazol-1-yl)methanone] | – | – | inhibition at 0.0032 µM (DAGLα (hDAGLα-FLAG); 3.2 nM, read-out: DAGLα % inh. 3.2 nM): 0 to 25%; inhibition at 0.0032 µM (DAGLβ (hDAGLβ-FLAG); read-out: DAGLβ % inh. 3.2 nM): 0 to 25%
COc1cc(C(=O)N(C)C)cc(OC)c1-c1ccc(-c2cn(C(=O)N3CCCCC3Cc3ccccc3)nn2)cc1 (stereo not shown) [Compound 80, 4′-(1-(2-benzylpiperidine-1-carbonyl)-1H-1,2,3-triazol-4-yl)-2,6-dimethoxy-N,N-dimethyl-[1,1′-biphenyl]-4-carboxamide] | 400 to 2000 | > 10000 | –
COC(=O)N1CCN(C(=O)n2cc(-c3ccc(OC(F)(F)F)cc3)nn2)C(Cc2ccccc2)C1 (stereo not shown) [Compound 95, methyl 3-benzyl-4-(4-(4-(trifluoromethoxy)phenyl)-1H-1,2,3-triazole-1-carbonyl)piperazine-1-carboxylate] | – | – | inhibition at 0.4 µM (DAGLα (hDAGLα-FLAG)): ≥ 75%; inhibition at 0.4 µM (DAGLβ (hDAGLβ-FLAG)): 25 to 50%
CC(C)(C)OC(=O)N1CCN(C(=O)n2cc(-c3ccc(OC(F)(F)F)cc3)nn2)[C@@H](Cc2ccccc2)C1 [Compound 102, tert-butyl (S)-3-benzyl-4-(4-(4-(trifluoromethoxy)phenyl)-1H-1,2,3-triazole-1-carbonyl)piperazine-1-carboxylate] | – | – | inhibition at 0.4 µM (DAGLα (hDAGLα-FLAG)): ≥ 75%; inhibition at 0.4 µM (DAGLβ (hDAGLβ-FLAG)): ≥ 75%

Reference: patent US10583137B2, “Triazole DAGLα inhibitors” (THE SCRIPPS RESEARCH INSTITUTE, priority 2015, dated 2020)
